Data published in publication PMC6145916, “Interaction of mitochondrial fission factor with dynamin related protein 1 governs physiological mitochondrial function in vivo” (Scientific Reports, 2018).
Where no end group is shown, it is not given here.

Experiments:
[1] = system: Mff-Drp1 interaction; experiment: Co-immunoprecipitation of Drp1 and Mff from SH-SY5Y cell lysate; assay type: cell-based, human; conditions: 1 µM, 1 hour, relative to TAT-carrier control; n = 3, with 2 replicates
[2] = system: SH-SY5Y cells; experiment: Mitochondrial membrane potential (TMRM), SH-SY5Y; assay type: cell-based, human; conditions: overnight treatment, normalized to no peptide; 3 independent experiments
Procedure: Represented Western blot is cropped from a full blot shown in the Expanded Western Blots section of the Supplementary Information. […] Hoechst 33342 is shown in blue and Tom20 in green (n = 3, 10 images each). Below, quantification of the form factor (degree of branching) and major axis length (length of mitochondria). At least 6,000 mitochondrial fragments were measured for each condition. Mitochondrial reactive oxygen species (ROS) production (MitoSox Red) (c) and mitochondrial membrane potential (TMRM) (d) after overnight treatment with indicated concentrations of peptide or FCCP. Data are from 3 independent experiments per condition normalized to the average no peptide value. (e) Relative mitochondrial ROS (MitoSox Red) signal in GFP positive cells expressing full-length or alanine-substituted P259 at indicated amino acids after two days of transfection. Values are normalized to a GFP empty vector (n = 3, with 3 replicates). […] Data are mean ± s.e.
Following treatment, cells were washed with treatment media.
The Cy5 filter was used to autofocus on the mitochondria plane. […] MitoROS was calculated as the average MitoSox signal per cell. The mitochondrial membrane potential was calculated as the average TMRM signal in the mitochondrial mask. […]
(§1) calculated as the average MitoSox signal per cell. […]

[3] = system: E17 primary cortical neurons; experiment: Mitochondrial morphology (Tom20), primary cortical neurons; assay type: cell-based, rat; conditions: 1 µM P259, two-hour treatment; n = 3, 10 images each
Procedure: Bottom, quantification of the form factor (degree of branching) and aspect ratio (major/minor axis length). At least 10,000 mitochondrial fragments were analyzed for each condition. Mitochondrial reactive oxygen species production (MitoSox Red) (b) and membrane potential (TMRM) (c) after overnight treatment with indicated concentrations of peptide (n = 3, with 3 replicates). […] Overlay of live microscopy imaging at time 0 (green) and 150 (red) seconds. […] An estimation of the % mobile mitochondria from the Pearson coefficient of each set of images. Data are mean ± s.e.
(§2) Human neuroblastoma SH-SY5Y cells purchased from ATCC were cultured in a 50/50 mixture of […]
(§3) using SH-SY5Y cells were carried out in the same growth medium with the exception of using […]
(§4) Wild-type and MFF knockout mouse embryonic fibroblast (MEF) cells were generously provided by Professor David Chan. […]
(§5) an NCBI protein blast of the P259 sequence ([…]) was performed across the human genome database and the top 75 gene query hits were recorded.7 The orthologs of each available gene were obtained from the Ensembl database.8 Of the resulting 75 human gene hits, 37 had […]
The effect of peptides on GTPase activity of Drp1 was measured by incubating recombinant Drp1 […]
for 1 hour at 37 °C. GTPase activity was measured using a colorimetric GTPase assay kit (Novus Biologicals, CO, USA) as instructed by the manufacturer. […]

[4] = system: Huntington's disease patient-derived fibroblasts; experiment: Mitochondrial ROS (MitoSox) in HD patient-derived fibroblasts; assay type: cell-based, human; conditions: indicated peptide concentration daily for three days, normalized to healthy fibroblast control; 3 independent experiments
Procedure: (DNM1L) and MFF genes. a.
DNM1L and MFF throughout evolution. NCBI PSI -BLAST was performed for the human […]
corresponding to the human gene. c.
DNM1L and 7/7 isoforms of MFF. d. […]
affect mitochondrial fusion measured by photoconvertible den dra2 protein. Mito -dendra2 […]
The initial image following […]
species production (MitoSox). d.
Data are of 3 independent experiments with the whiskers calculated by the Turkey method. e. […]
production in an Mff -dependent manner. Mitochondrial reactive oxygen species production […]
treatment in each cell line. […]
determined by an unpaired, two -tailed t test). g. […]
control (no peptide treatment). Data are mean ± s.e. from 3 independent experiments.
as §2, §3, §4, §5, §1

[5] = system: Wild-type MEF cells; conditions: 4 µM P259, 15 minutes, mito-dendra2 photoconversion; 9 movies over two independent experiments

Substance: YGRKKRRQRRRGSGIIQLPEIVVV-NH2 (C-terminus assumed) [P259]
- Mff-Drp1 interactions (co-IP) [1]: significant reduction in Mff-Drp1 interactions
- mitochondrial membrane potential [2]: mitochondrial depolarization
- mitochondrial morphology [3]: more elongated and branched mitochondria
- mitochondrial ROS [4]: further increased mitochondrial ROS
- rate of mitochondrial fusion [5]: did not increase the rate of mitochondrial fusion
